We go through one molecule from patent US7618656B2, “Method for use of lanthanum carbonate pharmaceutical compositions” (Shire International Licensing B.V., priority 2006, dated 2009).

A short description of this series: Attempted conversion of polymorph (II) to polymorph (I) by heating in water. It is filed as physicochemical. Particulars: 18 days at 90-100° C. The source says:
An attempt was made to convert polymorph (II) to polymorph (I) by heating in water for an extended period of time.

As to `O=C([O-])[O-].[La+3].[OH-]` [polymorph (II), lanthanum hydroxycarbonate], the “conversion of polymorph (II) to polymorph (I) (polymorph stability)” value is recorded as “No evidence of conversion”.
